Source: patent US5629340A, “Angiogenesis inhibitor and novel compound” (Tsumura & Co., priority 1993, dated 1997)
Like-named read-outs stand apart in the source and are kept apart here.

Key:
[1] = system: M-5076 (mouse ovarian reticulo sarcoma); experiment: In-vivo anti-tumor activity, M-5076 transplanted in C57BL6 mouse; settings: for Relative tumor proliferation rate (Trv/Crv(%)): day 21, control 100.0; for anti-tumor activity in vivo: in words
Experimental: In-vivo anti-tumor activity of the compounds of the present invention was tested.
M-5076 (mouse ovarian reticulo sarcoma, mouse ovary cancer) was intraperitoneally (i.p.) inoculated in C57BL6 mouse, and maintained by ip passage. The obtained ascites tumor cells werediluted with PBS (-) to cellular number of 2×10^7 cells/ml. 50 μl of the dilute solution (cellular number: 1×10^6) was subcutaneously (s.c.) transplanted to the right dorsal part of C57BL6 mouse (6 week old, female). From 7 days after the tumor cell inocutation, a sample was administrated to the mouse. The sample was prepared by suspending compounds (1) and (8) in 2% Tween 80 PBS (-) solution. The suspension was subcutaneously injected to a mouse in a dose of 100 μl per mouse. Three dosages, i.e., 400 mg/kg, 200 mg/kg and 100 mg/kg were set for the injection.
Mitomycin C (MMC) and Fumagillin Were employed in positive controls. MMC was intravascularly injected 4 times every two day. Other test samples and Fumagillin were intravascularly injected 6 times in total in a rate of 3 times/week. The test was carried out using N=9 in controls and N=5 in other groups.
Twenty one days after the inocutation of the tumor cells (14 days after the next day of the initiation of the sample injection), a relative tumor proliferation rate were examined to determine the anti-tumor effect of the samples.
The relative tumor proliferation rate are indicated by the following equation.
A significant difference test was performed by the Mann-Whitney U-Test. [formula]

[2] = system: HOME cells (human omental capillary endothelial cells); experiment: Migration of wounded HOME cells (wound healing model), with or without TGFα; assay type: cell-based; parameters: activity: dose or concentration left out as unconfirmed; settings: Endothelial cell; for activity: 24 h, compound added, read-out: Cell-migration rate (% of non-treatment group); for inhibition at 10 µg/mL: TGFα-free medium, final concentration 10 μg/ml, approximately
Excerpt: (§1) An in-vitro angiogenesis models have been established, using human omental capillary endothelial cells (hereinafter referred to as "HOME cells"). One is the angiogenesis models in a process of wound healing formed when the HOME cells are damaged with a razor blade. Another one is a model of HOME cell migration, synthesis of a tissue plasminogen activation factor (t-PA), and HOME-cell tube formation, accelerated by TGFα.
Compound(s) as an active ingredient of the angiogenesis inhibitor of the present invention (hereinafter also simply refer:red to as "compound(s)") were evaluated with respect to an activity to cell migration with human HOME cells in which a wound healing had been made by a razor blade, and cell migration activity accelerated by TGFα.
The HOME cells to be used in this experiment were isolated from human omental fatty tissues and cultured in a M-199 medium containing 10% fetal bovine serum (FBS) over 3 to 5 generations.
TGFα was obtained from Collaborative Research Inc., Bedford, Ma.
The HOME cells were cultured as a monolayer on a collagen-coated plastic dish (35 mm .phi.) to confluent. The thus obtained HOME cells were wounded with a razor blade and then washed twice with a phosphate buffer saline solution (PBS). […] Further, HOME cells were cultured in 1% human serum containing M-199 medium with neither active ingredient nor TGFα at 37° C for 24 hours to prepare a non-treatment group.
On the dish on which the HOME cells were cultured, the numbers of migrated HOME cells were counted, which migrated to the exposed portion of the Collagen-coated plastic dish. A cell-migration rate was calculated, regarding the cell migration numbers of the non-treatment group as 100%.

[3] = system: HOME cells co-cultured with human esophagus cancer cells (TE-1); experiment: Tube formation of HOME cells induced by human cancer cells (co-culture with TE-1 cells); assay type: cell-based; settings: Table 8; compound 10 μg/ml; TE-1 co-culture; non-treatment 0.348, control 1.551
Experimental: In a co-culture of the HOME cells and human cancer cells, the activity of the compounds to the tube formation of the HOME cells induced by the human cancer cells was determined. This experiment was carried out in accordance with the co-culture method described in Morisaki, Saito, et al., "Co-culture test system of vascular endothelial cells and tunica media smooth muscle cells".
The HOME cells on the type-1 collagen gel prepared in Experiment 2 and human esophagus cancer cells (TE-1) were co-cultured to assemble a tube formation assay system. More specifically, using a plate (manufactured by Corning Co.,) having 6 holes (each hole size: 38×7 mm) in the outer vessel, 2 ml of 10% FBS containing M-199 medium was placed to each hole. The TE-1 cells were cultured in this medium. Thereafter, the medium was replaced with 2 ml of 1% FBS containing M-199 mediums which respectively contained compounds (1) and (8). Also, the medium was replaced with 1% FBS containing M-199 medium alone.
On the other hand, culture plates equipped with a Millipore filter at the inner vessel (size: 30×7 mm) bottom, were prepared. The type-1 collagen gel was placed in the inner vessel. On each of the type-1 collagen gel, 2 ml of the HOME cells suspension in the 10% FBS containing M-199 medium were planted. […]
The total tube length in the HOME cells cultured was measured in the same manner as in Experiment 2.

[4] = system: HOME cells (human omental capillary endothelial cells); experiment: Tube formation of HOME cells induced by TGFα on type-1 collagen gel; assay type: cell-based; settings: for Tube formation remaining (%) at 10 µg/mL: Homo sapiens, Endothelial cell, final concentration 10 μg/ml, read-out: inhibition of tube formation induced by TGFα ("inhibited to"); for Total length of lumen/HPF: Table 7, non-treatment 0.551, control 1.561; for Total length of lumen/HPF / Total tube length/HPF: compound 10 μg/ml, TGFα 10 ng/ml, 3 days; for Total tube length/HPF: Table 6, non-treatment 0.616, control 2.045
Excerpt: as §1
The activity of the active ingredients to the tube formation of the HOME cells induced by TGFα was determined.
At first, 8 volume of a type 1 collagen solution (manufactured by Nitta Gelatin .), 1 volume of 10×M-199 and 1 volume of a reconstituted buffer) [200 mM Hepes, 0.05N sodium hydroxide and 260 mM sodium hydrogen carbonate] were mixed under ice cooling. The mixture was placed on plastic dishes (30 mm diameter, manufactured by Corning.) and allowed to stand still at 37° C. to make gel, thereby preparing a type-1 collagen gel.
Subsequently, the HOME cells were suspended in 10% FBS containing M-199 medium and then dispersed on the type 1 collagen gel mentioned above and incubated at 37° C.
When the HOME cells were incubated to confluent , they were transferred to 1% human serum containing M-199 mediums to which compounds (1), (2) and (4) to (12) (a final concentration: 10 μg/ml) were individually added together with TGFα (final concentration 10 ng/ml). These mediums were incubated for 3 days.
The HOME cells were also transferred to a 1% human serum containing M-199 medium with TGFα alone to prepare a control group and transferred to a 1% human serum containing M-199 medium to prepare a non-treatment group. They were also incubated for 3 days.
Two days after the incubation started, the culture mediums were exchanged. At three days, photographic picture of each dish was taken by a video camera (R5000H, Fuji, Tokyo), using a phase-contrast microscope at 200 magnification of the object. 8 views were taken for each dishes. The total tube length per one view formed by the HOME cells was measured by using a Cosmozone IS image analyzer (manufactured by Nikon).

[5] = 100 mg/kg, 6 injections, 3 times/week
[6] = 200 mg/kg, 6 injections, 3 times/week
[7] = 400 mg/kg, 6 injections, 3 times/week

Row | SMILES | activity ([2]; TGFα Free) [%] | activity ([2]; TGFα added) [%] | Tube formation remaining (%) at 10 µg/mL [4] [%] | Total length of lumen/HPF [4] | Total tube length/HPF [4] | further results
1 | COc1cc(-c2oc(-c3ccc(O)c(OC)c3)c(C)c2C)ccc1O [Compound 1] | 13.9 | 24 | 50 to 80 | 0.337 10^3 μm |  | Relative tumor proliferation rate (Trv/Crv(%)) [1, 5]: 37.1%; Relative tumor proliferation rate (Trv/Crv(%)) [1, 6]: 37.4%; Relative tumor proliferation rate (Trv/Crv(%)) [1, 7]: 51.3%; anti-tumor activity in vivo [1]: significant anti-tumor activity in vivo; inhibition at 10 µg/mL [2]: 50 to 86%; Total length of lumen/HPF [3]: 0.250 10^3 μm
2 | COc1ccc(-c2oc(-c3ccc(OC)c(OC)c3)c(C)c2C)cc1OC [Compound 2] | 69 | 68.2 | 40 to 60 |  | 1.115 10^3 μm | 
3 | Cc1c(-c2ccc(O)c(O)c2)oc(-c2ccc(O)c(O)c2)c1C [Compound 3, 3,4-dimethyl-2,5-bis(3,4-dihydroxyphenyl)furan] | 52.7 | 73.1 |  |  |  | 
4 | COc1cc(-c2oc(-c3ccc(OC(C)=O)c(OC)c3)c(C)c2C)ccc1OC(C)=O [Compound 4] | 50.2 | 60.4 |  |  | 2.127 10^3 μm | 
5 | Cc1c(-c2ccc3c(c2)OCO3)oc(-c2ccc3c(c2)OCO3)c1C [Compound 6, 3,4-dimethyl-2,5-bis(3,4-methylenedioxyphenyl)-furan] | 45.2 | 59.9 | 40 to 60 |  | 1.240 10^3 μm | inhibition at 10 µg/mL [2]: 50 to 86%
6 | Cc1c(-c2ccc3c(c2)OCCO3)oc(-c2ccc3c(c2)OCCO3)c1C [Compound 7, 3,4-dimethyl-2,5-bis(3,4-ethylenedioxyphenyl)furan] | 33.3 | 31.4 | 40 to 60 |  | 1.195 10^3 μm | 
7 | COc1ccc(-c2oc(-c3ccc(OC)c(O)c3)c(C)c2C)cc1O [Compound 8, 2,5-bis(3'-hydroxyl-4'-methoxyphenl)-3,4-dimethylfuran] | 69.4 | 44.2 | 50 to 80 | 0.422 10^3 μm |  | Relative tumor proliferation rate (Trv/Crv(%)) [1, 5]: 59.4%; Relative tumor proliferation rate (Trv/Crv(%)) [1, 6]: 41.4%; Relative tumor proliferation rate (Trv/Crv(%)) [1, 7]: 37.4%; anti-tumor activity in vivo [1]: significant anti-tumor activity in vivo; inhibition at 10 µg/mL [2]: 50 to 86%; Total length of lumen/HPF [3]: 0.277 10^3 μm
8 | COc1cc(-c2oc(C)c(-c3ccc(O)c(OC)c3)c2C)ccc1O [Compound 9, 2,4-bis(4-hydroxy-3-methoxyphenyl)-3,5-dimethylfuran] | 63.3 | 73 | 50 to 80 | 0.496 10^3 μm |  | 
9 | COc1cc(-c2oc(-c3ccc(O)c(OC)c3)c(CC(C)C)c2CC(C)C)ccc1O [Compound 10, 2,5-bis(4'-hydroxy-3'-methoxyphenyl)-3,4-diisobutylfuran] |  |  | 50 to 80 | 0.655 10^3 μm |  | 
10 | COc1cc(-c2oc(-c3cc(OC)c(O)c(OC)c3)c(C)c2C)cc(OC)c1O [Compound 11, 2,5-bis(4'-hydroxy-3',5'-dimethoxyphenyl)-3,4-dimethylfuran] | 81.2 | 56.1 | 50 to 80 | 0.817 10^3 μm |  | 
11 | CCOC(=O)c1c(-c2ccc(O)c(OC)c2)oc(-c2ccc(O)c(OC)c2)c1C(=O)OCC [Compound 12, Diethyl 2,5-bis(4'-hydroxy-3'-methoxyphenyl)furan-3,4-dicarboxylate] | 72.7 | 58.4 | 50 to 80 | 0.736 10^3 μm |  | 
12 | CO[C@@H]1[C@H](OC(=O)/C=C/C=C/C=C/C=C/C(=O)O)CC[C@]2(CO2)[C@H]1[C@@]1(C)O[C@@H]1CC=C(C)C [Fumagillin, reference compound] |  |  |  |  |  | Relative tumor proliferation rate (Trv/Crv(%)) ([1]; 30 mg/kg, 6 injections, 3 times/week): 41.7%
13 | CO[C@@]12[C@H](COC(N)=O)C3=C(C(=O)C(C)=C(N)C3=O)N1C[C@@H]1N[C@@H]12 [MMC, Mitomycin C, reference compound] |  |  |  |  |  | Relative tumor proliferation rate (Trv/Crv(%)) ([1]; 3.2 mg/kg, intravascular, 4 times every two days): 7.9%
